Results: ChEMBL document CHEMBL3044727, “Syntheses, spectral, crystallographic, antimicrobial, and antioxidant studies of few Mannich bases” (2012)

Assays:
Format in all cases: functional
[1] = tested on: Radical scavenging activity; test: Antioxidant activity assessed as DPPH radical scavenging activity
[2] = tested on: Radical scavenging activity; test: Antioxidant activity assessed as DPPH radical scavenging activity at 125 ug
[3] = tested on: Radical scavenging activity; test: Antioxidant activity assessed as DPPH radical scavenging activity at 100 ug
[4] = tested on: Radical scavenging activity; test: Antioxidant activity assessed as DPPH radical scavenging activity at 50 ug
[5] = tested on: Radical scavenging activity; test: Antioxidant activity assessed as DPPH radical scavenging activity at 75 ug
[6] = tested on: Radical scavenging activity; test: Antioxidant activity assessed as DPPH radical scavenging activity at 25 ug
[7] = Antioxidant activity assessed as inhibition of linoleic acid peroxidation by FTC method
[8] = Antioxidant activity assessed as inhibition of linoleic acid peroxidation at 100 ug by FTC method
[9] = Antioxidant activity assessed as inhibition of linoleic acid peroxidation at 125 ug by FTC method
[10] = Antioxidant activity assessed as inhibition of linoleic acid peroxidation at 75 ug by FTC method
[11] = Antioxidant activity assessed as inhibition of linoleic acid peroxidation at 50 ug by FTC method
[12] = Antioxidant activity assessed as inhibition of linoleic acid peroxidation at 25 ug by FTC method
[13] = tested on: Aspergillus fumigatus; test: Antimicrobial activity against Aspergillus fumigatus MTCC 6594 at 60 ug after 48 hr by streak plate method; details: MTCC 6594, 48 h, read-out: IZ
[14] = tested on: Aspergillus oryzae; test: Antimicrobial activity against Aspergillus oryzae MTCC 3782 at 60 ug after 48 hr by streak plate method; details: MTCC 3782, 48 h, read-out: IZ
[15] = tested on: Aspergillus oryzae; test: Antimicrobial activity against Aspergillus oryzae MTCC 3782 at 40 ug after 48 hr by streak plate method; details: MTCC 3782, 48 h, read-out: IZ
[16] = tested on: Aspergillus oryzae; test: Antimicrobial activity against Aspergillus oryzae MTCC 3782 at 20 ug after 48 hr by streak plate method; details: MTCC 3782, 48 h, read-out: IZ
[17] = tested on: Bacillus subtilis; test: Antimicrobial activity against Bacillus subtilis MTCC 4905 at 60 ug after 24 hr by streak plate method; details: MTCC 4905, 24 h, read-out: IZ
[18] = tested on: Bacillus subtilis; test: Antimicrobial activity against Bacillus subtilis MTCC 4905 at 40 ug after 24 hr by streak plate method; details: MTCC 4905, 24 h, read-out: IZ
[19] = tested on: Salmonella typhi; test: Antimicrobial activity against Salmonella enterica subsp. enterica serovar Typhi MTCC 3917 at 60 ug after 24 hr by streak plate method; details: MTCC 3917, 24 h, read-out: IZ
[20] = tested on: Salmonella typhi; test: Antimicrobial activity against Salmonella enterica subsp. enterica serovar Typhi MTCC 3917 at 40 ug after 24 hr by streak plate method; details: MTCC 3917, 24 h, read-out: IZ
[21] = tested on: Escherichia coli; test: Antimicrobial activity against Escherichia coli MTCC 3261 at 60 ug after 24 hr by streak plate method; details: MTCC 3261, 24 h, read-out: IZ
[22] = tested on: Escherichia coli; test: Antimicrobial activity against Escherichia coli MTCC 3261 at 40 ug after 24 hr by streak plate method; details: MTCC 3261, 24 h, read-out: IZ
[23] = tested on: Aspergillus fumigatus; test: Antimicrobial activity against Aspergillus fumigatus MTCC 6594 at 40 ug after 48 hr by streak plate method; details: MTCC 6594, 48 h, read-out: IZ
[24] = tested on: Aspergillus fumigatus; test: Antimicrobial activity against Aspergillus fumigatus MTCC 6594 at 20 ug after 48 hr by streak plate method; details: MTCC 6594, 48 h, read-out: IZ
[25] = tested on: Bacillus subtilis; test: Antimicrobial activity against Bacillus subtilis MTCC 4905 at 20 ug after 24 hr by streak plate method; details: MTCC 4905, 24 h, read-out: IZ
[26] = tested on: Salmonella typhi; test: Antimicrobial activity against Salmonella enterica subsp. enterica serovar Typhi MTCC 3917 at 20 ug after 24 hr by streak plate method; details: MTCC 3917, 24 h, read-out: IZ
[27] = tested on: Escherichia coli; test: Antimicrobial activity against Escherichia coli MTCC 3261 at 20 ug after 24 hr by streak plate method; details: MTCC 3261, 24 h, read-out: IZ

| Compound | Activity [1] | Activity [2] [%] | Activity [3] [%] | Activity [4] [%] | Activity [5] [%] | Activity [6] [%] | inhibition [7] | inhibition [8] [%] | inhibition [9] [%] | inhibition [10] [%] | inhibition [11] [%] | inhibition [12] [%] | zone of inhibition at 60 µg/disc [13] [mm] | zone of inhibition at 60 µg/disc [14] [mm] | zone of inhibition at 60 µg/disc [17] [mm] | zone of inhibition at 40 µg/disc [18] [mm] | zone of inhibition at 60 µg/disc [19] [mm] | zone of inhibition at 40 µg/disc [20] [mm] | zone of inhibition at 60 µg/disc [21] [mm] | zone of inhibition at 40 µg/disc [22] [mm] | other results |
| --- | --- | --- | --- | --- | --- | --- | --- | --- | --- | --- | --- | --- | --- | --- | --- | --- | --- | --- | --- | --- | --- |
| O=C1CCC(=O)N1C(Nc1ccccn1)c1ccccc1 (stereo unspecified) | Dose-dependent effect | 25 | 23 | 19 | 20 | 16 | Dose-dependent effect | 19 | 21 | 18 | 17 | 15 | 3 | 9 | 12 | 7 | 6 | 1 | 7 | 4 | zone of inhibition at 40 µg/disc [15]: 10 mm; zone of inhibition at 20 µg/disc [16]: 12 mm |
| C[C@@H]1[C@H](O)[C@@H](C)/C=C/C=C/C=C/C=C/C=C/C=C/C=C/[C@H](O[C@@H]2O[C@H](C)[C@@H](O)[C@H](N)[C@@H]2O)C[C@@H]2O[C@](O)(C[C@@H](O)C[C@@H](O)[C@H](O)CC[C@@H](O)C[C@@H](O)CC(=O)O[C@H]1C)C[C@H](O)[C@H]2C(=O)O [AMPHOTERICIN B] |  |  |  |  |  |  |  |  |  |  |  |  | 30 | 16 |  |  |  |  |  |  | zone of inhibition at 40 µg/disc [23]: 24 mm; zone of inhibition at 20 µg/disc [24]: 26 mm; zone of inhibition at 40 µg/disc [15]: 12 mm; zone of inhibition at 20 µg/disc [16]: 12 mm |
| O=C1CCC(=O)N1CNc1ccccc1 |  | 23 | 20 | 14 | 18 | 10 |  | 19 | 20 | 16 | 15 | 12 |  |  |  |  |  |  |  |  |  |
| CC1(C)S[C@@H]2[C@H](NC(=O)Cc3ccccc3)C(=O)N2[C@H]1C(=O)O [PENICILLIN G] |  |  |  |  |  |  |  |  |  |  |  |  |  |  | 26 | 26 | 24 | 24 | 31 | 30 | zone of inhibition at 20 µg/disc [25]: 25 mm; zone of inhibition at 20 µg/disc [26]: 20 mm; zone of inhibition at 20 µg/disc [27]: 24 mm |
| O=C(NC(c1ccccc1)c1cc2ccccc2cc1O)NC(c1ccccc1)c1cc2ccccc2cc1O (stereo unspecified) | Dose-dependent effect | 40 | 37 | 27 | 35 | 28 | Dose-dependent effect | 19 | 24 | 18.3 | 17 | 17 | 11 | 12 | 3 | 4 | 23 | 21 | 9 | 8 | zone of inhibition at 40 µg/disc [23]: 6 mm; zone of inhibition at 40 µg/disc [15]: 8 mm; zone of inhibition at 20 µg/disc [25]: 4 mm; zone of inhibition at 20 µg/disc [26]: 20 mm |
| O=C1CCC(=O)N1C(Nc1ccccc1)c1ccccc1 (stereo unspecified) | Dose-dependent effect | 25 | 18 | 14 | 17 | 9 | Dose-dependent effect | 20 | 22 | 19 | 17 | 16 | 6 | 15 | 17 | 10 | 11 | 6 | 16 | 2 | zone of inhibition at 40 µg/disc [15]: 12 mm; zone of inhibition at 20 µg/disc [16]: 3 mm |
| O=C1O[C@H]([C@@H](O)CO)C(O)=C1O |  | 59 | 58 | 54 | 57 | 53 |  | 35 | 37 | 31.2 | 27 | 27.2 |  |  |  |  |  |  |  |  |  |
| VITAMIN E |  | 51 | 50 | 47 | 49 | 45 |  | 29 | 33 | 27 | 26 | 23 |  |  |  |  |  |  |  |  |  |
| CN[C@@H]1[C@H](O[C@H]2[C@H](O[C@H]3[C@H](O)[C@@H](O)[C@H](N=C(N)N)[C@@H](O)[C@@H]3N=C(N)N)O[C@@H](C)[C@]2(O)C=O)O[C@@H](CO)[C@H](O)[C@H]1O [STREPTOMYCIN] |  |  |  |  |  |  |  |  |  |  |  |  |  |  | 41 | 33 | 40 | 40 | 45 | 39 | zone of inhibition at 20 µg/disc [25]: 30 mm; zone of inhibition at 20 µg/disc [26]: 36 mm; zone of inhibition at 20 µg/disc [27]: 31 mm |
| O=C1c2ccccc2C(=O)N1CNc1ccccc1 | Dose-dependent effect | 24 | 22 | 19 | 20 | 15 | Dose-dependent effect | 15 | 16 | 15.6 | 13 | 11 | 2 | 4 | 14 | 9 | 5 | 5 | 8 | 3 | zone of inhibition at 40 µg/disc [15]: 7 mm; zone of inhibition at 20 µg/disc [16]: 7 mm; zone of inhibition at 20 µg/disc [26]: 3 mm |
| Oc1cc2ccccc2cc1Cn1cccc1 | Dose-dependent effect | 38 | 36 | 33 | 35 | 32 | Dose-dependent effect | 17 | 19 | 16.2 | 13 | 10 | 3 | 14 | 16 | 14 | 23 | 22 | 14 | 4 | zone of inhibition at 40 µg/disc [15]: 10 mm; zone of inhibition at 20 µg/disc [26]: 22 mm |
| O=C1CCC(=O)N1CNc1ccccn1 | Dose-dependent effect | 36 | 27 | 18 | 22 | 17 | Dose-dependent effect | 20 | 21 | 19 | 19 | 18 | 13 | 15 | 8 | 5 |  |  | 12 | 7 | zone of inhibition at 40 µg/disc [23]: 7 mm |
